# Measurements taken from PubChem BioAssay (NCI).
#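 Interpolation was linear, between the two tested concentrations surrounding the appropriate level; five concentrations were tested over 48 hours in 96-well plates. At the GI50, growth is halved. The concentration for full growth arrest is given as TGI.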
# Experiments:
# Test in all cases: NCI anticancer screen, dose series, 48 h
# BT-549 breast = test system: BT-549 breast
# HT29 colon = test system: HT29 colon
# LOX IMVI melanoma = test system: LOX IMVI melanoma
# SK-OV-3 ovarian = test system: SK-OV-3 ovarian
# SF-539 CNS = test system: SF-539 CNS
# SNB-19 CNS = test system: SNB-19 CNS
# RXF 393 renal = test system: RXF 393 renal
# CAKI-1 renal = test system: CAKI-1 renal
# HCC-2998 colon = test system: HCC-2998 colon
# NCI-H23 lung = test system: NCI-H23 lung
# NCI-H522 lung = test system: NCI-H522 lung
# SK-MEL-2 melanoma = test system: SK-MEL-2 melanoma
# A549 NSCLC = test system: A549 NSCLC
# NCI-H460 lung = test system: NCI-H460 lung
# ACHN renal = test system: ACHN renal
# HL-60(TB) leukemia = test system: HL-60(TB) leukemia
# UO-31 renal = test system: UO-31 renal
# MDA-MB-231 breast = test system: MDA-MB-231 breast
# SK-MEL-5 melanoma = test system: SK-MEL-5 melanoma
# HS 578T breast = test system: HS 578T breast
# HOP-92 NSCLC = test system: HOP-92 NSCLC
# UACC-257 melanoma = test system: UACC-257 melanoma
# COLO 205 colon = test system: COLO 205 colon
# OVCAR-8 ovarian = test system: OVCAR-8 ovarian
# CCRF-CEM leukemia = test system: CCRF-CEM leukemia
# MDA-MB-435 = test system: MDA-MB-435
# HCT-15 colon = test system: HCT-15 colon
# MOLT-4 leukemia = test system: MOLT-4 leukemia
# DU-145 prostate = test system: DU-145 prostate
# MALME-3M melanoma = test system: MALME-3M melanoma
# HCT-116 colon = test system: HCT-116 colon
# IGROV1 ovarian = test system: IGROV1 ovarian
# SF-268 CNS = test system: SF-268 CNS
# SN12C renal = test system: SN12C renal
# K-562 leukemia = test system: K-562 leukemia
# OVCAR-5 ovarian = test system: OVCAR-5 ovarian
# OVCAR-3 ovarian = test system: OVCAR-3 ovarian
# MCF7 breast = test system: MCF7 breast
# PC-3 prostate = test system: PC-3 prostate
# T-47D breast = test system: T-47D breast
# RPMI-8226 leukemia = test system: RPMI-8226 leukemia
# OVCAR-4 ovarian = test system: OVCAR-4 ovarian
# 786-0 renal = test system: 786-0 renal
# M14 melanoma = test system: M14 melanoma
# SNB-75 CNS = test system: SNB-75 CNS
# SW-620 colon = test system: SW-620 colon
# NCI/ADR-RES ovarian = test system: NCI/ADR-RES ovarian
# SR leukemia = test system: SR leukemia
# SF-295 CNS = test system: SF-295 CNS
# KM12 colon = test system: KM12 colon
# SK-MEL-28 melanoma = test system: SK-MEL-28 melanoma
# TK-10 renal = test system: TK-10 renal
# HOP-62 NSCLC = test system: HOP-62 NSCLC
# UACC-62 melanoma = test system: UACC-62 melanoma
# EKVX NSCLC = test system: EKVX NSCLC
# NCI-H226 lung = test system: NCI-H226 lung
# A498 renal = test system: A498 renal
# U251 CNS = test system: U251 CNS
smiles,measurement,setting,value
O=C(Nc1ccc(Br)cc1)Nc1n[nH]c2ccccc12,GI50,BT-549 breast,> 100 µM
same,TGI,BT-549 breast,> 100 µM
same,GI50,HT29 colon,> 100 µM
same,TGI,HT29 colon,> 100 µM
same,GI50,LOX IMVI melanoma,> 100 µM
same,TGI,LOX IMVI melanoma,> 100 µM
same,GI50,SK-OV-3 ovarian,> 33.7 µM
same,TGI,SK-OV-3 ovarian,> 100 µM
same,GI50,SF-539 CNS,> 70.9 µM
same,TGI,SF-539 CNS,> 100 µM
same,GI50,SNB-19 CNS,> 100 µM
same,TGI,SNB-19 CNS,> 100 µM
same,GI50,RXF 393 renal,> 62.8 µM
same,TGI,RXF 393 renal,> 100 µM
same,GI50,CAKI-1 renal,> 100 µM
same,TGI,CAKI-1 renal,> 100 µM
same,GI50,HCC-2998 colon,> 100 µM
same,TGI,HCC-2998 colon,> 100 µM
same,GI50,NCI-H23 lung,> 100 µM
same,TGI,NCI-H23 lung,> 100 µM
same,GI50,NCI-H522 lung,55 µM
same,TGI,NCI-H522 lung,> 100 µM
same,GI50,SK-MEL-2 melanoma,> 100 µM
same,TGI,SK-MEL-2 melanoma,> 100 µM
same,GI50,A549 NSCLC,> 62.7 µM
same,TGI,A549 NSCLC,> 100 µM
same,GI50,NCI-H460 lung,11.7 µM
same,TGI,NCI-H460 lung,> 100 µM
same,GI50,ACHN renal,23.3 µM
same,TGI,ACHN renal,> 100 µM
same,GI50,HL-60(TB) leukemia,18.7 µM
same,TGI,HL-60(TB) leukemia,> 90 µM
same,GI50,UO-31 renal,25.8 µM
same,TGI,UO-31 renal,> 100 µM
same,GI50,MDA-MB-231 breast,> 50.3 µM
same,TGI,MDA-MB-231 breast,> 100 µM
same,GI50,SK-MEL-5 melanoma,> 88.7 µM
same,TGI,SK-MEL-5 melanoma,> 100 µM
same,GI50,HS 578T breast,46.8 µM
same,TGI,HS 578T breast,> 100 µM
same,GI50,HOP-92 NSCLC,> 86.3 µM
same,TGI,HOP-92 NSCLC,> 100 µM
same,GI50,UACC-257 melanoma,> 100 µM
same,TGI,UACC-257 melanoma,> 100 µM
same,GI50,COLO 205 colon,> 100 µM
same,TGI,COLO 205 colon,> 100 µM
same,GI50,OVCAR-8 ovarian,71.2 µM
same,TGI,OVCAR-8 ovarian,> 100 µM
same,GI50,CCRF-CEM leukemia,6.8 µM
same,TGI,CCRF-CEM leukemia,> 100 µM
same,GI50,MDA-MB-435,> 100 µM
same,TGI,MDA-MB-435,> 100 µM
same,GI50,HCT-15 colon,17.3 µM
same,TGI,HCT-15 colon,> 100 µM
same,GI50,MOLT-4 leukemia,8.98 µM
same,TGI,MOLT-4 leukemia,> 100 µM
same,GI50,DU-145 prostate,> 60.2 µM
same,TGI,DU-145 prostate,> 100 µM
same,GI50,MALME-3M melanoma,> 19.7 µM
same,TGI,MALME-3M melanoma,> 100 µM
same,GI50,HCT-116 colon,33.8 µM
same,TGI,HCT-116 colon,> 100 µM
same,GI50,IGROV1 ovarian,17.5 µM
same,TGI,IGROV1 ovarian,> 100 µM
same,GI50,SF-268 CNS,> 46 µM
same,TGI,SF-268 CNS,> 100 µM
same,GI50,SN12C renal,> 100 µM
same,TGI,SN12C renal,> 100 µM
same,GI50,K-562 leukemia,59.1 µM
same,TGI,K-562 leukemia,> 100 µM
same,GI50,OVCAR-5 ovarian,> 100 µM
same,TGI,OVCAR-5 ovarian,> 100 µM
same,GI50,OVCAR-3 ovarian,> 100 µM
same,TGI,OVCAR-3 ovarian,> 100 µM
same,GI50,MCF7 breast,42.1 µM
same,TGI,MCF7 breast,> 100 µM
same,GI50,PC-3 prostate,> 82.7 µM
same,TGI,PC-3 prostate,> 100 µM
same,GI50,T-47D breast,> 100 µM
same,TGI,T-47D breast,> 100 µM
same,TGI,RPMI-8226 leukemia,> 100 µM
same,GI50,OVCAR-4 ovarian,56.7 µM
same,TGI,OVCAR-4 ovarian,> 100 µM
same,GI50,786-0 renal,> 100 µM
same,TGI,786-0 renal,> 100 µM
same,GI50,M14 melanoma,> 100 µM
same,TGI,M14 melanoma,> 100 µM
same,GI50,SNB-75 CNS,34.4 µM
same,TGI,SNB-75 CNS,> 82.7 µM
same,GI50,SW-620 colon,> 100 µM
same,TGI,SW-620 colon,> 100 µM
same,GI50,NCI/ADR-RES ovarian,> 100 µM
same,TGI,NCI/ADR-RES ovarian,> 100 µM
same,GI50,SR leukemia,4.78 µM
same,TGI,SR leukemia,> 100 µM
same,GI50,SF-295 CNS,> 100 µM
same,TGI,SF-295 CNS,> 100 µM
same,GI50,KM12 colon,> 76.4 µM
same,TGI,KM12 colon,> 100 µM
same,GI50,SK-MEL-28 melanoma,> 100 µM
same,TGI,SK-MEL-28 melanoma,> 100 µM
same,TGI,TK-10 renal,> 26.7 µM
same,GI50,HOP-62 NSCLC,> 100 µM
same,TGI,HOP-62 NSCLC,> 100 µM
same,GI50,UACC-62 melanoma,> 100 µM
same,TGI,UACC-62 melanoma,> 100 µM
same,GI50,EKVX NSCLC,> 100 µM
same,TGI,EKVX NSCLC,> 100 µM
same,GI50,NCI-H226 lung,> 91 µM
same,TGI,NCI-H226 lung,> 100 µM
same,GI50,A498 renal,> 100 µM
same,TGI,A498 renal,> 100 µM
same,GI50,U251 CNS,> 91.2 µM
same,TGI,U251 CNS,> 100 µM
